Tested on: CD1 female mouse brain lipidome
Assay: Brain-region lipid levels (HPLC/MS/MS lipidomics) 2 h after single i.p. 3 mg/kg CP 55,940 vs vehicle
Format: in vivo
Design: N-arachidonoyl phenylalanine level, Mean / N-stearoyl tryptophan level, Mean / N-stearoyl proline level, Mean / N-stearoyl leucine level, Mean / N-stearoyl phenylalanine level, Mean / N-stearoyl serine level, Mean / N-stearoyl methionine level, Mean: unit: moles per gram
Protocol: The Bloomington Institutional Animal Care and Use Committee of Indiana University reviewed and approved the animal procedures. Female mice from the CD1 strain were utilized to match our study examining THC’s effects on the brain lipidome ([Leishman et al., 2018]). Mice were given a single i.p. injection of either 3 mg/kg CP or 1:1:18 cremophor:ethanol:saline vehicle (please refer to the section “3 mg/kg CP Is Relevant for Synthetic Cannabinoid Abuse and Has Stronger Effects on the Female Mouse Brain Lipidome During Adolescence” for a justification of dose and use of female mice). Three different age groups were given injections: PND 35 and PND 50 adolescents, and adult mice (PND 113). At least eight mice in each age group received CP and at least eight received vehicle. Matching the THC study time course ([Leishman et al., 2018]), mice were sacrificed via rapid decapitation 2 h after injection. Brains were immediately removed and flash-frozen in liquid nitrogen, and then stored at -80°C until dissections were performed. Brains were dissected on an ice-cold dissection plate into the following regions: STR, HIPP, CER, THAL, CTX, HYP, MID, and STEM. These abbreviations for these brain areas will be used exclusively when discussing the results generated by these specific dissections. Each dissected area was immediately placed in liquid nitrogen and then stored at -80°C until used for lipid extraction.
Tissue extracts were performed as previously described ([Bradshaw et al., 2006]; [Stuart et al., 2013]; [Raboune et al., 2014]; [Leishman et al., 2016a],[b], [2017], [2018]). First, samples were shock frozen in liquid nitrogen, weighed, and transferred to a centrifuge tube. The mass of the largest sample was multiplied by 50 to determine how many milliliters of HPLC-grade methanol (Fisher, Fair Lawn, NJ, United States) to add. Then, samples were spiked with 500 pmol deuterium-labeled NAGly (d8NAGly; Cayman Chemical, Ann Arbor, MI, United States). Samples were placed on ice in darkness for 2 h then individually homogenized and centrifuged at 19,000 × g for 20 min at 20°C. Supernatants were diluted with HPLC water (purified in house) to make a solution of 75% water, 25% supernatant. Lipids were partially purified on C18 solid phase extraction columns (Agilent, Palo Alto, CA, United States). A series of four elutions with 1.5 mL of 60%, 75%, 85%, and 100% methanol were collected ([Stuart et al., 2013]; [Leishman et al., 2016a],[b], [2018]).
As previously described ([Bradshaw et al., 2006]; [Tan et al., 2006]; [Smoum et al., 2010]; [Stuart et al., 2013]; [Tortoriello et al., 2013]; [Raboune et al., 2014]; [Leishman et al., 2016a],[b], [2017], [2018]), samples were analyzed using an Applied Biosystems API 3000 triple quadrupole mass spectrometer with electrospray ionization (Foster City, CA, United States). Using an Agilent XDB-C18 reversed phase analytical column and optimized mobile phase gradients, 20 μL from each elution were chromatographed. Two Shimadzu 10ADvp pumps (Columbia, MD, United States) provided the pressure for gradient elution. Mobile phase A: 20% methanol, 80% water (v/v) and 1 mM ammonium acetate (Sigma, St. Louis, MO, United States). Mobile phase B: 100% methanol, 1 mM ammonium acetate. Every method run began with 0% mobile phase B, reached 100% mobile phase B flowing at 0.2 mL/min, and gradually returned to 0% mobile phase B.
This screening library will be referred to as the lipidome when discussing data from this study. HPLC/MS/MS data were analyzed using Analyst software (Applied Biosystems) ([Bradshaw et al., 2006]; [Tan et al., 2006]; [Stuart et al., 2013]; [Tortoriello et al., 2013]; [Raboune et al., 2014]; [Leishman et al., 2016a],[b], [2017], [2018]). Chromatograms (Supplementary Figure 3) were generated by determining the retention time of analytes from the analytical column with a [M-1] or [M+1] parent peak and a fragmentation peak corresponding to the programmed values. […]

[1] = adult hypothalamus, 3mg/kg CP 55,940, p .001
[2] = adult hypothalamus, 3mg/kg CP 55,940, p .002
[3] = adult hypothalamus, 3mg/kg CP 55,940, p .005
[4] = adult hypothalamus, 3mg/kg CP 55,940, p .020
[5] = adult hypothalamus, 3mg/kg CP 55,940, p .036
[6] = adult hypothalamus, 3mg/kg CP 55,940, p .060
[7] = adult hypothalamus, 3mg/kg CP 55,940, p .073
[8] = adult midbrain, 3mg/kg CP 55,940
[9] = adult midbrain, 3mg/kg CP 55,940, p .000
[10] = adult midbrain, 3mg/kg CP 55,940, p .003
[11] = adult midbrain, 3mg/kg CP 55,940, p .023

## CCCCCCC(C)(C)c1ccc([C@@H]2C[C@H](O)CC[C@H]2CCCO)c(O)c1 [CP 55,940]
Adult hypothalamus, 3 mg/kg CP 55,940
  THC level, Mean: BDL
[1]
  PGF2α Direction (relative to Veh): ↓
  PGF2α Magnitude (x Veh level): 0.79
[2]
  phosphoLEA Direction (relative to Veh): ↓
  phosphoLEA Magnitude (x Veh level): 0.74
[3]
  6-ketoPGF1α Direction (relative to Veh): ↓
  6-ketoPGF1α Magnitude (x Veh level): 0.61
[4]
  N-palmitoyl phenylalanine Direction (relative to Veh): ↑
  N-palmitoyl phenylalanine Magnitude (x Veh level): 1.86
[5]
  PGE2 Direction (relative to Veh): ↑
  PGE2 Magnitude (x Veh level): 1.18
[6]
  N-arachidonoyl taurine Direction (relative to Veh): ↑
  N-arachidonoyl taurine Magnitude (x Veh level): 1.24
[7]
  N-arachidonoyl GABA Direction (relative to Veh): ↓
  N-arachidonoyl GABA Magnitude (x Veh level): 0.83
[8]
  2-arachidonoyl glycerol level, Mean: 3.47E-09
  2-linoleoyl glycerol level, Mean: 3.28E-10
  2-oleoyl glycerol level, Mean: 4.34E-09
  2-palmitoyl glycerol level, Mean: 8.64E-11
  6-ketoPGF1α level, Mean: 3.28E-11
  11-OH-THC level, Mean: BDL
  11-nor-9-carboxyTHC level, Mean: BDL
  Arachidonic acid level, Mean: 5.39E-10
  Cannabidiol level, Mean: BDL
  Linoleic acid level, Mean: 2.55E-10
  N- stearoyl valine level, Mean: 3.08E-14
  N-arachidonoyl GABA level, Mean: 2.05E-11
  N-arachidonoyl alanine level, Mean: 8.5E-13
  N-arachidonoyl dopamine level, Mean: BDL
  N-arachidonoyl ethanolamine level, Mean: 1.42E-11
  N-arachidonoyl glycine level, Mean: 7.94E-13
  N-arachidonoyl phenylalanine level, Mean: 2.39E-13
  N-arachidonoyl proline level, Mean: BDL
  N-arachidonoyl serine level, Mean: 4.34E-13
  N-arachidonoyl taurine level, Mean: 5.5E-11
  N-arachidonoyl tryptophan level, Mean: BDL
  N-arachidonoyl tyrosine level, Mean: 1.09E-12
  N-docosahexaenoyl GABA level, Mean: 8.66E-12
  N-docosahexaenoyl ethanolamine level, Mean: 3.34E-11
  N-docosahexaenoyl glycine level, Mean: 1.02E-13
  N-docosahexaenoyl methionine level, Mean: BDL
  N-docosahexaenoyl phenylalanine level, Mean: 1.11E-13
  N-docosahexaenoyl proline level, Mean: BDL
  N-docosahexaenoyl tryptophan level, Mean: BDL
  N-linoleoyl alanine level, Mean: 4.8E-13
  N-linoleoyl ethanolamine level, Mean: 1.5E-11
  N-linoleoyl glycine level, Mean: 4.47E-14
  N-linoleoyl methionine level, Mean: BDL
  N-linoleoyl proline level, Mean: BDL
  N-linoleoyl serine level, Mean: 2.09E-11
  N-linoleoyl tryptophan level, Mean: BDL
  N-linoleoyl tyrosine level, Mean: BDL
  N-nervonoyl valine level, Mean: BDL
  N-oleoyl GABA level, Mean: 1.69E-11
  N-oleoyl alanine level, Mean: 2.56E-12
  N-oleoyl dopamine level, Mean: BDL
  N-oleoyl ethanolamine level, Mean: 3.41E-10
  N-oleoyl glycine level, Mean: 4.95E-13
  N-oleoyl leucine level, Mean: 1.1E-12
  N-oleoyl phenylalanine level, Mean: 1.49E-12
  N-oleoyl proline level, Mean: BDL
  N-oleoyl serine level, Mean: 1.28E-10
  N-oleoyl tryptophan level, Mean: BDL
  N-oleoyl tyrosine level, Mean: 7.3E-13
  N-oleoyl valine level, Mean: 2.38E-14
  N-palmitoyl GABA level, Mean: 2.91E-11
  N-palmitoyl alanine level, Mean: 1.61E-12
  N-palmitoyl ethanolamine level, Mean: 6.9E-11
  N-palmitoyl glycine level, Mean: 1.85E-12
  N-palmitoyl leucine level, Mean: 2.19E-12
  N-palmitoyl methionine level, Mean: 2.91E-12
  N-palmitoyl phenylalanine level, Mean: 1.17E-12
  N-palmitoyl proline level, Mean: BDL
  N-palmitoyl tryptophan level, Mean: BDL
  N-palmitoyl tyrosine level, Mean: 1.01E-12
  N-palmitoyl valine level, Mean: 1.76E-13
  N-stearoyl GABA level, Mean: 1.9E-11
  N-stearoyl alanine level, Mean: 2.08E-12
  N-stearoyl ethanolamine level, Mean: 1.35E-11
  N-stearoyl glycine level, Mean: 2.96E-12
  N-stearoyl leucine level, Mean: 1.09E-12
  N-stearoyl methionine level, Mean: 4.14E-13
  N-stearoyl phenylalanine level, Mean: 7.89E-13
  N-stearoyl proline level, Mean: BDL
  N-stearoyl serine level, Mean: 1.92E-11
  N-stearoyl tryptophan level, Mean: BDL
  Oleic acid level, Mean: 4.73E-10
  PGE2 level, Mean: 2.39E-10
  PhosphoLEA level, Mean: 2.38E-11
  THC level, Mean: BDL
[9]
  2-arachidonoyl glycerol, Direction (relative to Veh): ↓
  2-arachidonoyl glycerol, Magnitude (x Veh level): 0.80
  2-oleoyl glycerol, Direction (relative to Veh): ↓
  2-oleoyl glycerol, Magnitude (x Veh level): 0.74
  Arachidonic acid, Direction (relative to Veh): ↓
  Arachidonic acid, Magnitude (x Veh level): 0.78
[10]
  2-linoleoyl glycerol Direction (relative to Veh): ↓
  2-linoleoyl glycerol Magnitude (x Veh level): 0.77
  phosphoLEA Direction (relative to Veh): ↓
  phosphoLEA Magnitude (x Veh level): 0.70
[11]
  N-palmitoyl ethanolamine, Direction (relative to Veh): ↓
  N-palmitoyl ethanolamine, Magnitude (x Veh level): 0.82
